Assay results from patent publication US20240315994A1, “SMALL MOLECULE MODULATORS OF FERROPTOSIS” (ARPEGGIO BIOSCIENCES, INC., priority 2021, published 2024).

Key:
[1] = tested on: 786-O Renal Clear Cell Carcinoma cells; test: Bodipy-C11 lipid peroxidation staining in 786-O cells; format: cell-based; conditions: for lipid peroxidation (Bodipy-C11 staining): 8216 6.25 μM 2 h, 1816 25 μM 1 h, 3362 12.5 μM 2 h, 0973 50 μM 2 h, 1962 50 μM 2 h
Procedure: To validate that the five ferroptosis-inducing compounds identified in FIG. 3 do cause lipid peroxidation, we used Bodipy-C11 staining in 786-O Renal Clear Cell Carcinoma cells to visualize using microscopy the presence (or absence) of oxidized lipids. Biodipy-C11 is a dye that traffics to lipid membranes and harbors a fluorophore that emits at different wavelengths depending on its oxidation status. Briefly, 786-O Renal Clear Cell Carcinoma cells were plated 24 hours prior to treatment with each of the five ferroptosis-inducing compounds (8216, 1816, 3362, 1962, and 0973) for one or two hours. DMSO was used as a control treatment. Following the treatment period, Hoechst stain (10 μM; a nuclear counterstain) and Bodipy-C11 (200 μM) were added to the cells for 30 minutes and then the cells were imaged using the Opera Phenix high content screening microscope.
FIG. 4B is a panel of plots 410 showing fluorescence images of Biodipy-C11 staining of cells treated with compound 8216 and the controls RSL3 and sodium arsenite. Briefly, 786-O Renal Clear Cell Carcinoma cells were plated 24 hours prior to treatment with compound 8216 and the controls RSL3 and sodium arsenite for 1 hour with and without 1.5 μM of ferrostatin-1. Bodipy C-11 undergoes a shift in emission when lipids become oxidized, non-oxidized lipids are represented in orange and oxidized lipids are green; Hoescht was included as nuclear stain to represent cell bodies.

[2] = tested on: HMOX1 expression in HT-1080 fibrosarcoma cells; test: HMOX1 induction by RT-qPCR in HT-1080 cells; format: cell-based; conditions: for HMOX1 induction (RT-qPCR): 10 μM or 5 μM, four hours, normalized to ACTB, relative to DMSO
Procedure: We tested several of our ferroptosis-inducing compounds for their ability to rapidly induce HMOX1 by RT-qPCR. Briefly, HT-1080 fibrosarcoma cells were treated with either 10 µM or 5 µM of compound RSL3, 8216, 1962, 1816, or 3362 for four hours. RNA was isolated and reverse transcribed and HMOX1 expression quantified by qPCR. Each sample was normalized to an ACTB housekeeping gene control and fold change was calculated relative to a DMSO control.
We tested several of the ferroptosis-inducing compounds for their ability to rapidly induce expression of HMOX1. Briefly, HT-1080 fibrosarcoma cells were plated in 6-well dishes 24 hours prior to treatment with 5 μM of 8147, 6047, 3793, Rsl3, 6666 or 8216 with and without the addition of ferrostatin-1 to the media. Cells were harvested from the plate after 4 hours of compound treatment by adding Trizol reagent directly to the plate to lyse the cells and preserve the RNA. RNA was isolated using the Direct-zol 96-well RNA kit (Zymo cat #R2054). Subsequently purity and quantity of RNA in the samples were measured using a Nanodrop (Thermo Fisher cat #ND-ONE-W). RNA samples were normalized to 2 μg and reverse transcribed to cDNA using the Multiscribe High-Capacity Reverse Transcription kit (Thermo Fisher cat #4368814) following manufacturer's instructions. Quantitative real time PCR was carried out in triplicate using SYBR Select Master Mix (Thermo Fisher cat #4472903) following manufacturer's instructions with primers designed against HMOX1 and ActB from IDT. HMOX1 expression levels were normalized to ActB for each sample then fold change was determined against the vehicle control, DMSO.

recombinant GPX4 protein = molecular target: T1, recombinant GPX4 protein (Homo sapiens, UniProt P36969); test: Intact protein mass spectrometry binding to recombinant GPX4; conditions: for binding to recombinant GPX4 in vitro / number of binding events / sites on GPX4 (mass shifts): intact protein mass spectrometry, 2 hours incubation
T1 construct: purchased Cayman Chemical SO960203
T1 sequence (P36969 1-197): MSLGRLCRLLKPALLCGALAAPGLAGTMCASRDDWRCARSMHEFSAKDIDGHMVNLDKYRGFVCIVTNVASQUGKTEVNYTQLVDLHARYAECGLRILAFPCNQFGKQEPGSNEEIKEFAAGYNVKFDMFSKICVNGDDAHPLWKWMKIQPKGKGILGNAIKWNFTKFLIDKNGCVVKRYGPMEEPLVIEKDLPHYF
Excerpt: To determine whether the five ferroptosis-inducing compounds identified in FIG. 3 and FIG. 4 could function through direct binding and inhibition of GPX4, we tested binding of each compound to recombinant GPX4 protein in vitro by intact protein mass spectrometry. Intact mass analysis is the assessment of a protein's total molecular weight by mass spectrometry without prior digestion or fragmentation of the molecule of interest. Covalent binding of a potential inhibitor to GPX4 can be detected by a shift in the mass of the intact protein. For the intact protein analysis, we used ML162, a well-characterized GPX4 inhibitor (available from Sigma Aldrich), as a positive control. […] Briefly, compounds were incubated with recombinant GPX4 protein in vitro for 2 hours before quenching with trifluoroacetic acid (TFA) and analysis by mass spectroscopy.
To determine whether the ferroptosis-inducing compounds 6666 and 8147 could function through direct binding and inhibition of GPX4, we tested binding of each compound to recombinant GPX4 protein in vitro by intact protein mass spectrometry. Compound 8216 was used as a positive control (see FIG. 6). Briefly, 15 μL of GPX4 protein (Cayman Chemical cat #SO960203]) was incubated with 100 µM of each compound ([…]) and diluted with 25.5 μl of PBS. The incubation was performed at room temperature for 2 hours and then the reaction was quenched with 3 μL of trifluoroacetic acid. Samples were subjected to UPLC coupled to Synapt G2 mass spectrometer to evaluate if binding of the test compound to GPX4 occurs. Binding is evident by a mass shift equivalent to the mass size of the compound minus a chlorine atom plus the mass size of the GPX4 protein, as described by the manufacturer.

| Compound | lipid peroxidation (Bodipy-C11 staining) [1] | HMOX1 induction (RT-qPCR) [2] | binding to recombinant GPX4 in vitro (recombinant GPX4 protein) | number of binding events / sites on GPX4 (mass shifts) (recombinant GPX4 protein) | Bodipy C-11 emission shift (lipid oxidation) ([1]; 1 hour, with and without 1.5 μM ferrostatin-1) | HMOX1 upregulation and rescue by ferrostatin-1 (RT-qPCR) ([2]; 5 μM, 4 hours, with and without ferrostatin-1) | mass shift of GPX4 (binding) (recombinant GPX4 protein; 100 μM compound, room temperature, 2 hours, UPLC-Synapt G2) |
| --- | --- | --- | --- | --- | --- | --- | --- |
| CCCCCN(C(=O)CCl)c1c(N)n(CCCC)c(=O)[nH]c1=O [Compound 1816] | some degree of lipid peroxidation was observed | did not induce HMOX1 | capable of binding GPX4 | display a single mass shift | – | – | – |
| O=C(CCl)N1c2ccccc2OC[C@@H]1c1ccccc1 [Compound 1962] | some degree of lipid peroxidation was observed | did not lead to dose responsive induction of HMOX1 | capable of binding GPX4 | can bind GPX4 either 2, 3, or 4 times | – | – | – |
| CCOc1ccc(C[C@@H]2c3cc(OCC)c(OCC)cc3CCN2C(=O)CCl)cc1OCC [Compound 3362] | some degree of lipid peroxidation was observed | results in induction of HMOX1 | – | bind either 1, 2, or 3 times | – | – | – |
| O=C(CCl)N(Cc1ccc(F)cc1)C1CCCCC1 [Compound 8216] | some degree of lipid peroxidation was observed | remarkably similar dose-dependent HMOX1 induction | capable of binding GPX4 | bind either 1, 2, or 3 times | shift in emission color from orange to green | upregulation of HMOX1 which was rescued by the addition of ferrostatin-1, to varying degrees | demonstrate a mass shift |
